The supplement of paper PMC10307832

Assays:
Assay in all cases: relative viability (nuclei count vs DMSO), 5 days (fraction); higher = more cells survive
[1] = compound: CC1=CC(=C(N1C2=CC=C(C=C2)Cl)C)C(=O)CN3CCCCC3 [IU1-47] + COc1cccc2cc(-c3nc([C@H]4CC[C@H](C(=O)O)CC4)n4ncnc(N)c34)[nH]c12 [OSI-027] (partner 0.5 µM)
In short: (§1)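 Relative viability is defined as nuclei in treated wells over nuclei in vehicle wells. Duplicate plates were run and medians reported. Lung cancer cell lines in 1536-well plates were dosed by pin tool one day after seeding, with one drug or with a fixed anchor-drug dose plus five library-drug doses (not always all listed) in √10 steps, and nuclei were counted after 5 days.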

[2] = compound: CC1=CC(=C(N1C2=CC=C(C=C2)Cl)C)C(=O)CN3CCCCC3 [IU1-47] + C[C@@H](Oc1cc(-c2cnn(C3CCNCC3)c2)cnc1N)c1c(Cl)ccc(F)c1Cl [Crizotinib] (partner 1 µM)
In short: as §1

[3] = compound: CC1=CC(=C(N1C2=CC=C(C=C2)Cl)C)C(=O)CN3CCCCC3 [IU1-47] + Nc1ncn([C@H]2C[C@H](O)[C@@H](CO)O2)c(=O)n1 [Decitabine] (partner 2 µM)
In short: as §1

[4] = compound: Cc1nc(C(=O)NCC(=O)O)c(O)c2ccc(Oc3ccccc3)cc12 [FG-4592] + COc1cccc2cc(-c3nc([C@H]4CC[C@H](C(=O)O)CC4)n4ncnc(N)c34)[nH]c12 [OSI-027] (partner 0.5 µM)
In short: as §1

| Cell Line | relative viability ([1]; first compound 0.08 µM) | relative viability ([1]; first compound 0.253 µM) | relative viability ([1]; first compound 0.8 µM) | relative viability ([1]; first compound 2.53 µM) | relative viability ([1]; first compound 8 µM) | relative viability ([2]; first compound 0.08 µM) | relative viability ([2]; first compound 0.253 µM) | relative viability ([2]; first compound 0.8 µM) | relative viability ([2]; first compound 2.53 µM) | relative viability ([2]; first compound 8 µM) | relative viability ([3]; first compound 0.08 µM) | relative viability ([3]; first compound 0.253 µM) | relative viability ([3]; first compound 0.8 µM) | relative viability ([3]; first compound 2.53 µM) | relative viability ([3]; first compound 8 µM) | relative viability ([4]; first compound 0.08 µM) | relative viability ([4]; first compound 0.253 µM) | relative viability ([4]; first compound 0.8 µM) | relative viability ([4]; first compound 2.53 µM) | relative viability ([4]; first compound 8 µM) |
| --- | --- | --- | --- | --- | --- | --- | --- | --- | --- | --- | --- | --- | --- | --- | --- | --- | --- | --- | --- | --- |
| NCI-H1755 | 0.759 | 0.876 | 0.777 | 0.729 | 0.686 | 0.883 | 0.927 | 0.899 | 0.895 | 0.756 | 0.712 | 0.694 | 0.653 | 0.797 | 0.766 | 0.661 | 0.649 | 0.727 | 0.737 | 0.693 |
| HCC-78 | 0.38 | 0.354 | 0.337 | 0.42 | 0.353 | 0.334 | 0.358 | 0.336 | 0.324 | 0.386 | 0.643 | 0.682 | 0.71 | 0.668 | 0.723 | 0.346 | 0.307 | 0.406 | 0.357 | 0.362 |
| IA-LM | – | – | – | – | – | – | 0.974 | 0.942 | 1.1 | 0.644 | – | – | – | – | – | – | – | – | – | – |
| NCI-H322M | 0.677 | 0.553 | 0.632 | 0.568 | 0.553 | 1.02 | 0.923 | 0.888 | 1.07 | 0.954 | 0.776 | 0.807 | 0.645 | 0.683 | 0.652 | 0.507 | 0.543 | 0.557 | 0.488 | 0.469 |
| NCI-H3122 | 1.07 | 0.961 | 1.05 | 0.987 | 0.954 | 0.277 | 0.27 | 0.295 | 0.269 | 0.241 | 0.416 | 0.402 | 0.517 | 0.491 | 0.449 | 1 | 0.899 | 0.889 | 0.768 | 0.563 |
| COR-L23 | 0.831 | 0.977 | 0.845 | 0.901 | 0.563 | 0.735 | 0.704 | 0.669 | 0.817 | 0.609 | 0.337 | 0.45 | 0.481 | 0.432 | 0.436 | 0.798 | 0.617 | 0.793 | 0.701 | 0.468 |
| NCI-H2087 | 0.834 | 0.582 | 0.506 | – | 0.531 | 1.01 | 0.83 | 0.947 | 1.04 | 0.806 | 0.317 | 0.256 | 0.311 | 0.228 | 0.23 | 0.559 | 0.538 | 0.669 | 0.473 | 0.486 |
| LC-2-ad | 0.86 | 0.81 | 0.75 | 0.546 | 0.787 | 0.412 | 0.444 | 0.434 | 0.572 | 0.41 | 0.996 | 0.788 | 0.792 | – | 0.78 | 0.838 | 0.753 | – | 0.591 | 0.661 |
| NCI-H1915 | 0.614 | 0.626 | 0.599 | – | 0.581 | 0.973 | 0.892 | 0.915 | – | 0.907 | 0.269 | 0.256 | 0.27 | 0.25 | 0.247 | 0.521 | 0.59 | 0.683 | 0.579 | 0.578 |
